Laboratory results: patent US9732094B2, “Arylquinazolines” (Merck Patent GmbH, priority 2013, dated 2017)
Where two headings read alike, the source gives them in different places. Values belong to the compound of their own block, whether it stands above or below them.

What was measured:
Kv11.1 (hERG) = Kv11.1 (hERG) (Homo sapiens (Human), UniProt Q12809); experiment: Kv11.1 (hERG) ion channel activity (patch clamp assay), HEK293 cells transfected with hERG gene
[1] = biological target: DNA-PK phosphorylation at serine 2056 (Homo sapiens (Human), UniProt P78527); experiment: DNA-PK phosphorylation at serine 2056 (cellular), bleomycin-treated HCT116 cells, ELISA; assay type: cell-based
Method: HCT116 cells were cultivated at 37° C. and 10% CO2 in MEM alpha medium with 10% of foetal calf serum and 2 mM glutamine. The cells were detached from the base of the culture vessels with the aid of trypsin/EDTA, centrifuged off in centrifuge tubes, taken up in fresh medium, and the cell density was determined. 100,000 cells were sown in 1 ml of culture medium per cavity of a 24-well cell culture plate and cultivated overnight. Next day, 10 μM bleomycin (DNA intercalator and inductor of DNA double-strand breaks) and test substances in fresh culture medium were added to the cells, and these were cultivated for a further six hours. […] The 96-well ELISA plates were subsequently treated with a detection antibody (Abcam ab79444: total DNA-PK) and a streptavidin-HRP conjugate. The development of the enzymatic reaction was carried out with the aid of a chemiluminescent reagent, the chemiluminescence was measured with the aid of a Mithras LB940. The signals with the phospho-DNA-PK-specific antibody were standardised to the signal with the antibody against the total protein DNA-PKc. […] The DMSO control was used as blank.

DNA-PK = DNA-PK (Homo sapiens (Human), UniProt P78527); experiment: DNA-PK assay (biochemical), flashplate 33P-ATP kinase assay
Method: A) DNA-PK Assay (Biochemical)
The kinase assay was carried out in streptavidin-coated […] microtitre flashplates. […] The reaction was stopped using 50 μl/well of 200 mM EDTA. After incubation for a further 30 min at room temperature, the liquid was removed. Each well was washed three times with 100 μl of 0.9% saline solution. A nonspecific reaction (blank value) was determined using 10 μM of an innate kinase inhibitor. The radioactivity measurement was carried out using a TopCount. IC50 values were calculated in RS1.

[2] = read-out: Ki [Kv1.11 hERG], hERG patch clamp assay (cells without asterisk)
[3] = cellular DNA-PK phosphorylation at serine 2056, HCT116, read-out: IC50 pDNA-PK
[4] = Ki [Kv1.11 hERG], hERG patch clamp assay (cells without asterisk)
[5] = read-out: Ki [Kv1.11 hERG], patch clamp, HEK293 transfected with hERG gene
[6] = cellular, HCT116 cells, 10 μM bleomycin, six hours, read-out: IC50 pDNA-PK
[7] = read-out: Ki [Kv1.11 hERG], Table 5
[8] = Table 5, HCT116 cells, read-out: IC50 pDNA-PK
[9] = Ki [Kv1.11 hERG], patch clamp, HEK293 transfected with hERG gene

Sequence of Kv11.1 (hERG) (Q12809 whole entry): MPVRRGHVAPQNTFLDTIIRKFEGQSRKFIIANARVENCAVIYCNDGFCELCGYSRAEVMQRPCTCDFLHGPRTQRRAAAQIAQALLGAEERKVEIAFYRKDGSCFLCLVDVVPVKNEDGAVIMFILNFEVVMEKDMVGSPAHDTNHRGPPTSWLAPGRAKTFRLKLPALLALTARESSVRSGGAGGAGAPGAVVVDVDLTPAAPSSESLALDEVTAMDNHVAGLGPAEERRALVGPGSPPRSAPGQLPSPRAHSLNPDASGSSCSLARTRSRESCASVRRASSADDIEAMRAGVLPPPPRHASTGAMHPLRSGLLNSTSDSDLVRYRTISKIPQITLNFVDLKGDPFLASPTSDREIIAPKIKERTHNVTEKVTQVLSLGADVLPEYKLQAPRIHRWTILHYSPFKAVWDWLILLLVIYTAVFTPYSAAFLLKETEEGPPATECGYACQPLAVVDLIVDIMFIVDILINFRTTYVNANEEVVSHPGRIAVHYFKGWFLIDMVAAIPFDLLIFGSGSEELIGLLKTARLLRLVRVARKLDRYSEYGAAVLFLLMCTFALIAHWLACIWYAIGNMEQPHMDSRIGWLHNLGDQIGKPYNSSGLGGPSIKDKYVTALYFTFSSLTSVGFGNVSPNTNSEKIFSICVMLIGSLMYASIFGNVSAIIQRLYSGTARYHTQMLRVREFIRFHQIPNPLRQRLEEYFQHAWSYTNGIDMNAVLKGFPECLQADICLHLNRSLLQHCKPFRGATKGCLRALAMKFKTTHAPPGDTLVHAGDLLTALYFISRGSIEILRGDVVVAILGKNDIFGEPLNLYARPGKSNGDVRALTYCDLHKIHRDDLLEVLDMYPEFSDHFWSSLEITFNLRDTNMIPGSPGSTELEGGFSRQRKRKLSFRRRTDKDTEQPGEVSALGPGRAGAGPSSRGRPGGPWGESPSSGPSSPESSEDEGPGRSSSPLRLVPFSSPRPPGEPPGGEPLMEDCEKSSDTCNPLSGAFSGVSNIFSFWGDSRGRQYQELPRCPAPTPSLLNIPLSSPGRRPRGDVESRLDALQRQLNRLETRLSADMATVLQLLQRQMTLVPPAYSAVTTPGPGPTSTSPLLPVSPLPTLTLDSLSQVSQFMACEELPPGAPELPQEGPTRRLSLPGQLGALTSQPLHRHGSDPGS

Structure (SMILES): NC(=O)C(c1cc(-c2ncnc3cc(N4CCOCC4)ccc23)c(F)cc1Cl)c1ncnn2cccc12 (stereo not drawn) [Example 309, 2-[2-Chloro-4-fluoro-5-(7-morpholin-4-yl-quinazolin-4-yl)-phenyl]-2-[3H-pyrrolo[2,1-f][1,2,4]-triazin-(4E)-ylidene]-acetamide]
Ki (Kv11.1 (hERG); [2]): < 10 µM | IC50 [1, 3]: 10 to 30 µM

Structure (SMILES): COc1ccc([C@H](O)c2cc(-c3ncnc4cc(N5CCOCC5)ccc34)c(F)cc2Cl)nn1 [Example 135, (R)-[2-Chloro-4-fluoro-5-(7-morpholin-4-yl-quinazolin-4-yl)-phenyl]-(6-methoxy-pyridazin-3-yl)-methanol]
Ki (Kv11.1 (hERG); [5]): > 25 µM

Structure (SMILES): OC(c1ccc(-c2ncnc3cc(N4CCOCC4)ccc23)s1)c1nccs1 (stereo not drawn) [Example 147, [5-(7-Morpholin-4-ylquinazolin-4-yl)-thiophen-2-yl]-thiazol-2-ylmethanol]
Ki (Kv11.1 (hERG); Ki [Kv1.11 hERG], Table 5): 10 to 15 µM

Structure (SMILES): COc1ccc(C(O)c2cc(-c3ncnc4cc(N5CCOCC5)ccc34)c(F)cc2Cl)nn1 (stereo not drawn) [Example 137, [2-Chloro-4-fluoro-5-(7-morpholin-4-ylquinazolin-4-yl)-phenyl]-(6-methoxy-pyridazin-3-yl)-methanol]
Ki (Kv11.1 (hERG); [9]): 10 to 15 µM

Structure (SMILES): [2H]C1([2H])OC([2H])([2H])C([2H])([2H])N(c2ccc3c(-c4cc(C(O)c5ccc(OC)nn5)c(Cl)cc4F)ncnc3c2)C1([2H])[2H] (single isomer, unassigned) [Example 239, [2-Chloro-4-fluoro-5-[7-(2,2.3,3,5,5,6,6-octadeuteriomorpholin-4-yl)quinazolin-4-yl]phenyl]-(6-methoxypyridazin-3-yl)methanol]
Ki (Kv11.1 (hERG); [4]): 15 to 25 µM

Structure (SMILES): [2H]c1c(N2CCOCC2)cc2ncnc(-c3cc(C(O)c4ccc(OC)nn4)c(Cl)cc3F)c2c1[2H] (stereo not drawn) [Example 225, [2-Chloro-5-(5,6-dideuterio-7-morpholinylquinazolin-4-yl)-4-fluorophenyl]-(6-methoxypyridazin-3-yl)methanol]
Ki (Kv11.1 (hERG); [4]): > 25 µM

Structure (SMILES): COc1ccc(C(O)c2cc(-c3ncnc4cc(N5CCOCC5)ccc34)c(F)cc2F)nn1 (stereo not drawn) [Example 131, [2,4-Difluoro-5-(7-morpholin-4-yl-quinazolin-4-yl)-phenyl]-(6-methoxy-pyridazin-3-yl)-methanol]
Ki (Kv11.1 (hERG); [9]): 15 to 25 µM

Structure (SMILES): COc1ccc(C(O)c2cc(-c3ncnc4cc(N5CCOCC5)ccc34)c(F)cc2F)nn1 (single isomer, unassigned) [Example 129, [2,4-Difluoro-5-(7-morpholin-4-yl-quinazolin-4-yl)-phenyl]-(6-methoxy-pyridazin-3-yl)-methanol]
Ki (Kv11.1 (hERG); [9]): 15 to 25 µM

Structure (SMILES): COc1ccc([C@@H](O)c2cc(-c3ncnc4cc(N5CCOCC5)ccc34)c(F)cc2Cl)nn1 [Example 136, (S)-[2-Chloro-4-fluoro-5-(7-morpholin-4-yl-quinazolin-4-yl)-phenyl]-(6-methoxy-pyridazin-3-yl)-methanol]
Ki (Kv11.1 (hERG); [5]): > 25 µM

Structure (SMILES): OCc1csc(C(O)c2cc(-c3ncnc4cc(N5C6CCC5COC6)ccc34)c(F)cc2Cl)n1 (stereo not drawn) [Example 187, {2-Chloro-4-fluoro-5-[7-(3-oxa-8-aza-bicyclo[3.2.1]oct-8-yl)quinazolin-4-yl]-phenyl}-(4-hydroxy-methylthiazol-2-yl)-methanol]
Ki (Kv11.1 (hERG); Ki [Kv1.11 hERG], Table 5): 15 to 25 µM | IC50 ([1]; IC50 pDNA-PK, Table 5, HCT116 cells): 10 to 30 µM

Structure (SMILES): COc1ccc(C(O)c2cc(-c3ncnc4cc(N5CCOCC5)ccc34)c(F)cc2F)nn1 (single isomer, unassigned) [Example 130, [2,4-Difluoro-5-(7-morpholin-4-yl-quinazolin-4-yl)-phenyl]-(6-methoxy-pyridazin-3-yl)-methanol]
Ki (Kv11.1 (hERG); [5]): > 25 µM

Second part, led by results:

IC50 (DNA-PK; biochemical DNA-PK assay): > 0.03 µM | IC50 [1, 3]: 10 to 30 µM
Structure (SMILES): OC(c1cccnn1)c1cc(-c2ncnc3cc(N4CCOCC4)ccc23)ccc1Cl (single isomer, unassigned) [Example 469, [2-Chloro-5-(7-morpholin-4-yl-quinazolin-4-yl)-phenyl]pyridazin-3-yl-methanol]
Ki (Kv11.1 (hERG); human, HEK293 cells stably transfected with the hERG gene, Ki [Kv1.11 hERG], hERG patch clamp assay (cells without asterisk)): 10 to 15 µM

IC50 (DNA-PK; biochemical DNA-PK assay): < 0.003 µM | IC50 [1, 3]: < 0.5 µM
Structure (SMILES): OC(c1ccc(F)c(-c2ncnc3cc(N4CCOCC4)ccc23)c1)c1ncnc2ccsc12 (stereo not drawn) [Example 438, [4-Fluoro-3-(7-morpholin-4-yl-quinazolin-4-yl)-phenyl]thieno[3,2-d}-pyrimidin-4-yl-methanol]
Ki (Kv11.1 (hERG); [4]): 10 to 15 µM

IC50 (DNA-PK; enzymatic, 5 μM ATP): 0.003 to 0.007 µM | IC50 [1, 6]: 0.5 to 5 µM
Structure (SMILES): C#Cc1nc(-c2cc(C(O)c3nccs3)ccc2F)c2ccc(N3CCOCC3)cc2n1 (stereo not drawn) [Example 208, [3-(2-Ethynyl-7-morpholinylquinazolin-4-yl)-4-fluorophenyl]thiazol-2-ylmethanol]
Ki (Kv11.1 (hERG); [5]): < 10 µM

IC50 (DNA-PK; biochemical DNA-PK assay): < 0.003 µM | IC50 [1, 3]: 0.5 to 5 µM
Structure (SMILES): Cc1cncnc1C(C(N)=O)c1cc(-c2ncnc3cc(N4CCOCC4)ccc23)ccc1Cl (stereo not drawn) [Example 407, 2-[2-Chloro-5-(7-morpholin-4-yl-quinazolin-4-yl)-phenyl]-2-(5-methyl-pyrimidin-4-yl)-acetamide]
Ki (Kv11.1 (hERG); [2]): 15 to 25 µM

IC50 (DNA-PK; enzymatic, 5 μM ATP): 0.007 to 0.03 µM | IC50 [1, 6]: 5 to 10 µM
Structure (SMILES): OC(c1ccc(F)c(-c2ncnc3cc(N4CCOCC4)sc23)c1)c1nccnc1Cl (single isomer, unassigned) [Example 23, (3-Chloro-pyrazin-2-yl)-[4-fluoro-3-(6-morpholin-4-yl-thieno-[3,2-d}pyrimidin-4-yl)-phenyl]methanol]
Ki (Kv11.1 (hERG); [5]): > 25 µM

IC50 (DNA-PK; Table 5): 0.007 to 0.03 µM | IC50 [1, 8]: 10 to 30 µM
Structure (SMILES): Cc1nc(C(O)c2cnc(F)c(-c3ncnc4cc(N5CCOCC5)ncc34)c2)sc1C (stereo not drawn) [Example 196, (4,5-Dimethyl-thiazol-2-yl)-[6-fluoro-5-(7-morpholin-4-yl-pyrido[4,3-d)-pyrimidin-4-yl)-pyridin-3-yl]-methanol]
Ki (Kv11.1 (hERG); [7]): > 25 µM

IC50 (DNA-PK; Table 5): > 0.03 µM
Structure (SMILES): OC(c1cccc(-c2ncnc3cc(N4CCOCC4)ccc23)c1)c1nccs1 (stereo not drawn) [Example 149, [3-(7-Morpholin-4-ylquinazolin-4-yl)-phenyl]thiazol-2-yl-methanol]
Ki (Kv11.1 (hERG); [7]): > 25 µM

IC50 (DNA-PK; Table 5): 0.007 to 0.03 µM
Structure (SMILES): CC(C)(C)n1cc(C(O)c2cc(-c3ncnc4cc(N5CCOCC5)ccc34)cnc2F)cn1 (stereo not drawn) [Example 198, (1-tert-Butyl-1H-pyrazol-4-yl)-[2-fluoro-5-(7-morpholin-4-yl-quinazolin-4-yl)-pyridin-3-yl]-methanol]
Ki (Kv11.1 (hERG); [7]): > 25 µM

IC50 (DNA-PK; Table 5): > 0.03 µM
Structure (SMILES): CC(O)(c1cccc(-c2ncnc3cc(N4CCOCC4)ccc23)c1)c1nccs1 (stereo not drawn) [Example 154, 1-[3-(7-Morpholin-4-ylquinazolin-4-yl)-phenyl]-1-thiazol-2-ylethanol]
Ki (Kv11.1 (hERG); Ki [Kv1.11 hERG], Table 5): 15 to 25 µM

IC50 [1, 6]: < 0.5 µM
Structure (SMILES): OC(c1ccc(OC2COC2)nn1)c1cc(-c2ncnc3cc(N4CCOCC4)ccc23)c(F)cc1Cl (stereo not drawn) [Example 100, [2-Chloro-4-fluoro-5-(7-morpholin-4-yl-quinazolin-4-yl)-phenyl]-[6-(oxetan-3-yloxy)pyridazin-3-yl)-methanol]
Ki (Kv11.1 (hERG); [9]): 10 to 15 µM

IC50 (DNA-PK; Table 5): > 0.03 µM
Structure (SMILES): CC(O)(c1cncc(-c2ncnc3cc(N4CCOCC4)ccc23)c1)c1nccs1 (stereo not drawn) [Example 138, 1-[5-(7-Morpholin-4-ylquinazolin-4-yl)-pyridin-3-yl]-1-thiazol-2-ylethanol]
Ki (Kv11.1 (hERG); Ki [Kv1.11 hERG], Table 5): 15 to 25 µM

IC50 (DNA-PK; Table 5): 0.007 to 0.03 µM
Structure (SMILES): Cc1nc(C(O)c2cc(-c3ncnc4cc(N5CCOCC5)ccc34)cnc2F)sc1C (stereo not drawn) [Example 194, (4,5-Dimethyl-thiazol-2-yl)-[2-fluoro-5-(7-morpholin-4-yl-quinazolin-4-yl)-pyridin-3-yl]-methanol]
Ki (Kv11.1 (hERG); [7]): > 25 µM

IC50 (DNA-PK; Table 5): > 0.03 µM
Structure (SMILES): Cc1nc(C(O)c2cc(-c3ncnc4cc(N5CCOCC5)ccc34)cnc2F)sc1C (stereo not drawn) [Example 206, (4,5-Dimethyl-thiazol-2-yl)-[2-fluoro-5-(7-morpholin-4-yl-quinazolin-4-yl)-pyridin-3-yl]-methanol]
Ki (Kv11.1 (hERG); Ki [Kv1.11 hERG], Table 5): 15 to 25 µM

IC50 (DNA-PK; Table 5): > 0.03 µM
Structure (SMILES): Cc1csc(C(O)c2cnc(F)c(-c3ncnc4cc(N5CCOCC5)ncc34)c2)n1 (stereo not drawn) [Example 195, [6-Fluoro-5-(7-morpholin-4-yl-pyrido[4,3-d}-pyrimidin-4-yl)-pyridin-3-yl]-(4-methyl-thiazol-2-yl)-methanol]
Ki (Kv11.1 (hERG); Ki [Kv1.11 hERG], Table 5): 15 to 25 µM

IC50 [1, 8]: 0.5 to 5 µM
Structure (SMILES): OC(c1ccc(F)c(-c2ncnc3cc(N4CCOCC4)sc23)c1)c1nccs1 (stereo not drawn) [Example 145, [4-fluoro-3-(6-morpholin-4-ylthieno[3,2-d]pyrimidin-4-yl)phenyl]thiazol-2-ylmethanol]
Ki (Kv11.1 (hERG); [7]): > 25 µM

IC50 (DNA-PK; Table 5): > 0.03 µM
Structure (SMILES): Cc1nc(C(O)c2cc(-c3ncnc4cc(N5CCOCC5)ncc34)cnc2F)sc1C (stereo not drawn) [Example 192, (4,5-Dimethyl-thiazol-2-yl)-[2-fluoro-5-(7-morpholin-4-yl-pyrido[4,3-d}-pyrimidin-4-yl)-pyridin-3-yl]-methanol]
Ki (Kv11.1 (hERG); Ki [Kv1.11 hERG], Table 5): 10 to 15 µM
